Test [1] concerns human cervical tumor cell line HeLa (ATCC CCL-2). Kind of test: SAC-Formation - Nocodazole-Induced Assay. The conditions noted are these: Homo sapiens, HeLa, 24 h, HeLa cells, nocodazole 0.1 μg/ml together with test compound, decrease of mitotic cells (phospho-histone H3 Ser10). The class given is cell-based. The essentials:
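Loss of phospho-histone H3 Ser10-positive cells, counted against Hoechst-stained nuclei by high-content imaging, marked mitotic breakthrough. Compounds (0.005–20 μM, 0.5% DMSO) were co-dosed with 0.1 μg/ml nocodazole onto HeLa cells for 24 h at 37 °C. Curves were fitted with a four-parameter Hill equation.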

Test [2] has as its target T1, catalytic domain of human Bub1 (amino acids 704-1085) (Homo sapiens, UniProt O43683).
T1 construct: catalytic domain of human Bub1 (amino acids 704-1085); His6 (N); made in house; host or cells: insect cells (Hi5)
The test is described as follows: Bub1 kinase assay (TR-FRET). The class given is biochemical. The conditions noted are these: 10 μM ATP, avg, read-out: Bub1 avg (IC50 [mol/l]). The essentials: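 Readout is the 665/620 nm TR-FRET ratio from anti-phosphoserine antibody, Eu-labelled anti-mouse IgG and streptavidin-XL665, scaled between no-enzyme and uninhibited controls. Reaction: 1 μM biotinylated peptide, 10 μM ATP, 60 min, 22 °C, after 15 min compound preincubation with His6-Bub1 (704-1085, insect-expressed, ~200 ng/ml).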
For orientation: In TR-FRET formats the signal depends on donor and acceptor labels being close together.

Where “and” joins values, the source holds several entries; their conditions need not be identical. Equal entries are not always repeated.

T1 sequence (O43683 704-1085): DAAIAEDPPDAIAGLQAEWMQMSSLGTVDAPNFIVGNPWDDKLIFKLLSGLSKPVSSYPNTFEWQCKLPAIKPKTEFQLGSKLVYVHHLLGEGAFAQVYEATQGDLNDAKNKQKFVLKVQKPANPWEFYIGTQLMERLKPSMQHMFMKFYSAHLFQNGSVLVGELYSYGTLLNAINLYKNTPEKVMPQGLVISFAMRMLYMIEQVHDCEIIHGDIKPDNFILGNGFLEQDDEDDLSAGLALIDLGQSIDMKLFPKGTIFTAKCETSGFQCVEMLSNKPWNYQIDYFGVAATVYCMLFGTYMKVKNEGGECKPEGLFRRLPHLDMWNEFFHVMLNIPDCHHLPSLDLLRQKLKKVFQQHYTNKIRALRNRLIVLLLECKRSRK

`Cc1nsc(Nc2cnc(C(F)(F)F)cn2)c1C(=O)Nc1ccc(O[C@H]2CCN(CCC(F)(F)F)C[C@H]2F)nc1` [Example 146, N-(6-{[(3R,4S)-3-fluoro-1-(3,3,3-trifluoropropyl)piperidin-4-yl]oxy}pyridin-3-yl)-3-methyl-5-{[5-(trifluoromethyl)pyrazin-2-yl]amino}-1,2-thiazole-4-carboxamide]: the IC50 in test [1] is 63 nM; in test [2], more than 20000 nM.
In the same order, the values of `CCCN1CC[C@H](Oc2ccc(NC(=O)c3c(C)nsc3Nc3cnc(C(F)(F)F)cn3)cn2)[C@H](F)C1` [Example 147, N-(6-{[(3R,4S)-3-fluoro-1-propylpiperidin-4-yl]oxy}pyridin-3-yl)-3-methyl-5-{[5-(trifluoromethyl)pyrazin-2-yl]amino}-1,2-thiazole-4-carboxamide] are 5.9 nM and more than 20000 nM.
For the compound `CCCCN1CC[C@H](Oc2ccc(NC(=O)c3c(C)nsc3Nc3cnc(C(F)(F)F)cn3)cn2)[C@H](F)C1` [Example 148, N-(6-{[(3R,4S)-1-butyl-3-fluoropiperidin-4-yl]oxy}pyridin-3-yl)-3-methyl-5-{[5-(trifluoromethyl)pyrazin-2-yl]amino}-1,2-thiazole-4-carboxamide], the values for the IC50 in test [1] and in test [2] were 210 nM and more than 20000 nM, respectively.
In the same order, the values of `Cc1nsc(Nc2cnc3cc(F)ccc3n2)c1C(=O)Nc1ccc(S(N)(=O)=O)cc1` [Example 149, 5-[(6-fluoroquinoxalin-2-yl)amino]-3-methyl-N-(4-sulfamoylphenyl)-1,2-thiazole-4-carboxamide] are 470 nM and more than 20000 nM.
In the same order, the values of `Cc1nsc(Nc2ccc(C#N)cn2)c1C(=O)Nc1cccc(S(C)(=O)=O)c1` [Example 150, 5-[(5-cyanopyridin-2-yl)amino]-3-methyl-N-[3-(methylsulfonyl)phenyl]-1,2-thiazole-4-carboxamide] are 160 nM and more than 20000 nM.
For `Cc1nsc(Nc2cnc(C(F)(F)F)cn2)c1C(=O)Nc1ccc(F)c(C(N)=O)c1` [Example 151, N-(3-carbamoyl-4-fluorophenyl)-3-methyl-5-{[5-(trifluoromethyl)pyrazin-2-yl]amino}-1,2-thiazole-4-carboxamide], in that order: 290 nM and 4300 nM.
Consider `CC(=O)Nc1cc(NC(=O)c2c(C)nsc2Nc2ccc(C#N)cn2)ccc1F` [Example 152, N-(3-acetamido-4-fluorophenyl)-5-[(5-cyanopyridin-2-yl)amino]-3-methyl-1,2-thiazole-4-carboxamide], for which the results for the IC50 in test [1] and in test [2] were 8400 nM and more than 20000 nM, respectively.
For `Cc1nsc(Nc2cnc(C(F)(F)F)cn2)c1C(=O)Nc1ccc(C(=O)NCCN2CCCC(F)(F)C2)cc1` [Example 153, N-(4-{[2-(3,3-difluoropiperidin-1-yl)ethyl]carbamoyl}phenyl)-3-methyl-5-{[5-(trifluoromethyl)pyrazin-2-yl]amino}-1,2-thiazole-4-carboxamide], in that order: 65 nM and 14000 nM.
As for `Cc1nsc(Nc2cnc(C(F)(F)F)cn2)c1C(=O)Nc1ccc(C(=O)N2CCN(CC(F)F)CC2)cc1` [Example 154, N-(4-{[4-(2,2-difluoroethyl)piperazin-1-yl]carbonyl}phenyl)-3-methyl-5-{[5-(trifluoromethyl)pyrazin-2-yl]amino}-1,2-thiazole-4-carboxamide], the values for the IC50 in test [1] and in test [2] were 710 nM and more than 20000 nM, respectively.
In the same order, the values of `Cc1nsc(Nc2cncc(C(F)(F)F)n2)c1C(=O)Nc1ccc(C(=O)NCCN2CCCC(F)C2)cc1` (centres unmarked) [Example 155, N-(4-{[2-(3-fluoropiperidin-1-yl)ethyl]carbamoyl}phenyl)-3-methyl-5-{[6-(trifluoromethyl)pyrazin-2-yl]amino}-1,2-thiazole-4-carboxamide] are 1700 nM and more than 20000 nM.
As for `Cc1nsc(Nc2cnc3ccccc3n2)c1C(=O)Nc1ccc(C(=O)NCCN2CCCC(F)(F)C2)cc1` [Example 156, N-(4-{[2-(3,3-difluoropiperidin-1-yl)ethyl]carbamoyl}phenyl)-3-methyl-5-(quinoxalin-2-ylamino)-1,2-thiazole-4-carboxamide], the IC50 in test [1] was 2100 nM; in test [2] it was 19000 nM and > 20000 nM.
For `Cc1nsc(Nc2cnc3ccccc3n2)c1C(=O)Nc1ccc(C(=O)N2CCN(CC(F)F)CC2)cc1` [Example 157, N-(4-{[4-(2,2-difluoroethyl)piperazin-1-yl]carbonyl}phenyl)-3-methyl-5-(quinoxalin-2-ylamino)-1,2-thiazole-4-carboxamide], the IC50 was 1700 nM in test [1] and more than 20000 nM in test [2].
For `Cc1nsc(Nc2cnc3ccccc3n2)c1C(=O)Nc1ccc(C(=O)NC2CN(C(=O)OC(C)(C)C)CC(F)(F)C2)cc1` (centres unmarked) [Example 158, tert-butyl 3,3-difluoro-5-{[4-({[3-methyl-5-(quinoxalin-2-ylamino)-1,2-thiazol-4-yl]carbonyl}amino)benzoyl]amino} piperidine-1-carboxylate], in that order: 240 nM and more than 20000 nM.
Turning to `Cc1nsc(Nc2cnc3ccccc3n2)c1C(=O)Nc1ccc(C(=O)N2CCCN(CC(F)(F)F)CC2)cc1` [Example 159], the figures for the IC50 in test [1] and in test [2] were 1500 nM and more than 20000 nM, respectively.
For `Cc1nsc(Nc2cnc(C(F)(F)F)cn2)c1C(=O)Nc1ccc(OC2CCN(C(C)C)CC2)nc1` [Example 160, N-{6-[(1-isopropylpiperidin-4-yl)oxy]pyridin-3-yl}-3-methyl-5-{[5-(trifluoromethyl)pyrazin-2-yl]amino}-1,2-thiazole-4-carboxamide], in that order: 2000 nM and more than 20000 nM.
In the same order, the values of `Cc1nsc(Nc2cnc(C(F)(F)F)cn2)c1C(=O)Nc1ccc(OC2CCN(CCF)CC2)c(F)c1` [Example 162, N-(3-fluoro-4-{[1-(2-fluoroethyl)piperidin-4-yl]oxy}phenyl)-3-methyl-5-{[5-(trifluoromethyl)pyrazin-2-yl]amino}-1,2-thiazole-4-carboxamide] are 160 nM and more than 20000 nM.
In the same order, the values of `Cc1nsc(Nc2cnc(C(F)(F)F)cn2)c1C(=O)Nc1ccc(OC2CCN(CC(F)(F)F)CC2)c(F)c1` [Example 163, N-(3-fluoro-4-{[1-(2,2,2-trifluoroethyl)piperidin-4-yl]oxy}phenyl)-3-methyl-5-{[5-(trifluoromethyl)pyrazin-2-yl]amino}-1,2-thiazole-4-carboxamide] are 61 nM and more than 20000 nM.
For `Cc1nsc(Nc2cnc(C(F)(F)F)cn2)c1C(=O)Nc1ccc(OC2CCN(CC(F)F)CC2)c(F)c1` [Example 164, N-(4-{[1-(2,2-difluoroethyl)piperidin-4-yl]oxy}-3-fluorophenyl)-3-methyl-5-{[5-(trifluoromethyl)pyrazin-2-yl]amino}-1,2-thiazole-4-carboxamide], the IC50 in test [1] was 84 nM; in test [2] it was more than 20000 nM.
In the same order, the values of `Cc1nsc(Nc2cnc(C(F)(F)F)cn2)c1C(=O)Nc1ccc(C(=O)NC2CCN(CC(F)(F)F)CC2)cc1` [Example 165, 3-methyl-N-(4-{[1-(2,2,2-trifluoroethyl)piperidin-4-yl]carbamoyl}phenyl)-5-{[5-(trifluoromethyl)pyrazin-2-yl]amino}-1,2-thiazole-4-carboxamide] are 240 nM and more than 20000 nM.

Values taken from patent publication US20170334899A1, “AMINO-SUBSTITUTED ISOTHIAZOLES” (Bayer Pharma Aktiengesellschaft, priority 2014, published 2017).
